Experimental data reported in patent publication US4119653A, “Co-ordination compounds of platinum” (Rustenburg Platinum Mines Limited, priority 1976, dated 1978).

Assays:
[1] = tested on: ADJ/PC6 tumour; assay: Antitumour test, ADJ/PC6 tumour, arachis oil intraperitoneal; assay type: in vivo, Balb-c white mice
Text: Vehicle: Arachis oil/Intraperitoneal
Subject: Balb-c white mice
(§1) Again as with the results given earlier, the tumour was ADJ/PC6, the vehicle was Arachis oil administered intraperitoneally to Balb-c white mice.

[2] = tested on: Balb-c white mice; assay: Toxicity (LD50 / deaths), arachis oil intraperitoneal
Text: Vehicle: Arachis oil/Intraperitoneal
Subject: Balb-c white mice
as §1

Row | Structure (SMILES) | inhib ([1]; table 9, line under Cl4 n-octyl, dose not stated) | LD50 ([2]; table 9) | % Inhibition ([1]; dose 12 mgm/Kgm, Balb-c mice) | % Inhibition ([1]; dose 60 mgm/Kgm, Balb-c mice) | ED90 ([1]; table 1, doses in mgm/Kgm, Balb-c mice) | LD50 ([2]; table 1, doses in mgm/Kgm)
1 | CCCCCCCCN.CCCCCCCCN.[Cl][Pt]([Cl])([Cl])[Cl] [Cl4 n-octyl] | < 20% | 270 mg/kg |  |  |  | 
2 | [NH2][Pt]([NH2])([OH])([OH])([Cl])[Cl] [trans di-hydroxo complexes of Pt(IV)] |  |  | 95.4% | 97.1% | < 12 mg/kg | 135 mg/kg
